Measurements taken from patent US12643889B2, “Synthesis of novel EP4 antagonist and use in cancer and inflammation” (Wuhan Humanwell Innovative Drug Research And Development …, priority 2020, dated 2026).

What was measured:
human EP4 receptor [1] = molecular target: T1, human EP4 receptor (Homo sapiens, UniProt P35408); assay: Assay of calcium current inhibition on EP4 receptor (FLIPR, 293 cells); assay type: cell-based; parameters: expressed in transfected cells; host or cells: 293 cells; settings: 293 cells overexpressing human EP4; PGE2 at EC80; FLIPR
T1 sequence (P35408 whole entry): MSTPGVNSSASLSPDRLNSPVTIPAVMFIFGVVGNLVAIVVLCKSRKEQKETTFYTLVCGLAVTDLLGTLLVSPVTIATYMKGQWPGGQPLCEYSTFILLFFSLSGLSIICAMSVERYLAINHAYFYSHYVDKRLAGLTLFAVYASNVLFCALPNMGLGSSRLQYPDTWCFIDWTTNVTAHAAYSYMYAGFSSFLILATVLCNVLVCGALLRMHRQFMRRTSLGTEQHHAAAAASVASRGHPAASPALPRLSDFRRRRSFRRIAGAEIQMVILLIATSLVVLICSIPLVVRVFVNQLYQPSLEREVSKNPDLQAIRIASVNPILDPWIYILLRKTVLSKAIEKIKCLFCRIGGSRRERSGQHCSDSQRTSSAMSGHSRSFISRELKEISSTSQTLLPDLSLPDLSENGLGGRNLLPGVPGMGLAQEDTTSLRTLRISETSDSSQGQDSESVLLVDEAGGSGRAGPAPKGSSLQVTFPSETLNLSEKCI
Experimental: The cells were rapidly thawed in a 37° C. water bath, centrifuged, resuspended, and counted. The cell suspensions were seeded at 20 μL/well in two 384-well plates (20,000 cells/well) and placed in an incubator (a 37° C., 5% CO2) overnight. Preparation of a 2× Fluo-4 Direct™ (Invitrogen, Cat #F10471) loading buffer: 77 mg of probenecid was added to 1 mL of a FLIPR buffer, with a concentration of 250 mM. 10 mL of FLIPR buffer and 0.2 mL of probenecid (250 mM) were added to each tube of Fluo-4 Direct™ crystals (F10471).
One of the cell plates was taken out of the incubator and the medium was removed. 20 μL of an assay buffer and 2× Fluo-4 Direct™ non-wash loading buffer were added to the 384-well cell culture plate to a final volume of 40 μL, and then the culture plate was incubated in an incubator (a 37° C., 5% CO2) for 50 minutes, and then at room temperature for 10 minutes, and then the plate was placed in the FLIPR. 10 μL of the buffer was transferred to the cell plate and the fluorescence signal was read. The agonist PGE2 was formulated as a 10 mM stock in a DMSO solvent and 10 concentration points of the 6× working solution were serially diluted using the buffer. 10 μL of the agonist PGE2 was transferred to the cell plate, the fluorescence signal was read to calculate EC80 value.
The agonist PGE2 was prepared at 6× EC80 concentration and the compound to be tested was formulated as a 10 mM stock solution in the DMSO solvent and 10 concentration points of the 6× compound working solution was serially diluted using the buffer.
Another cell plate was taken to remove media and 20 μL of the assay buffer and 2× Fluo-4 Direct™ non-wash loading buffer were added; the cell plate was incubated in a 37° C., 5% CO2 incubator for 50 minutes and room temperature for 10 minutes and then placed in the FLIPR. 10 μL of the compound working solution, DMSO, and the EP4 full antagonist were transferred to the cell plate and the fluorescence signal was read. […] Inhibition (%)=100−(test group−EP4 full antagonist group)/(DMSO group−EP4 full antagonist group)*100
Compound's IC50 value of EP4 calcium current inhibition was calculated based on the inhibition rate at different concentrations of the compound.

human EP4 receptor [2] = molecular target: T1, human EP4 receptor; assay: Assay for EP4 antagonistic effect (cAMP, PGE2-stimulated CHO stable cell line)
Experimental: After trypsinization, cells were resuspended in a buffer (1×HBSS, 0.1% BSA, 20 mM HEPES, and 500 μM IBMX) and 8000 cells were seeded per well in 384-well plates in a seeding volume of 15 μL. A working solution the compound with a 8× concentration was prepared with an experimental buffer, and then 2.5 μL of the working solution of the compound with 8× concentration was added to the 384-well plate, respectively, and incubated at 37° C. for 30 min. An agonist PGE2 working solution with 8× concentration of (4 nM) was prepared with the experimental buffer and 2.5 μL per well was added to the 384-well plate (the final PGE2 concentration was 0.5 nM) and incubated at 37° C. for 30 min. After the reaction was completed, the amount of cAMP in the cells was quantified according to the method in the instructions of the cAMP test kit (Perkin Elmer, Cat #TRF0263). The antagonistic effects (IC50 value) were calculated for the test compounds.

[3] = Mouse pharmacokinetic assay; assay type: in vivo, male ICR mice; settings: male, ICR, plasma
Experimental: (§1) In a mouse pharmacokinetic assay, male ICR mice (20 g to 25 g) were selected and fasted overnight. Three mice were selected and intragastrically administered with 5 mg/kg of the corresponding compound. The blood of the mice was collected before the administration and at 15 min, 30 min, 1 h, 2 h, 4 h, 8 h, 24 h after the administration. Another 3 mice were intravenously administered with 1 mg/kg of the corresponding compound, and the blood thereof was collected before the administration and at 15 min, 30 min, 1 h, 2 h, 4 h, 8 h, 24 h after the administration. The blood samples were centrifuged at 6800 g at 2° C. to 8° C. for 6 minutes, and plasma was collected and stored at −80° C. The plasma was taken at respective time point, mixed with 3-5 times the amount of acetonitrile containing internal standard, vortexed for 1 minute, centrifuged at 4° C. for 10 minutes at 13000 rpm, supernatant was added 3 times the amount of water, and the appropriate mixture was taken for LC-MS/MS analysis. The primary pharmacokinetic parameters were analyzed with a WinNonlin 7.0 software, with non-compartmental model.

[4] = molecular target: T2, recombinant human EP4 receptor membrane protein (Homo sapiens, UniProt P35408); assay: Radioligand binding assay for EP4 receptor ([3H]-PGE2); settings: [3H]-PGE2 1.5 nM; membrane protein 20 μg/well
T2 construct: expressed in transfected cells; host or cells: membranes of 293 cells overexpressing human EP4 receptor
T2 sequence (P35408 whole entry): as above
Experimental: The compounds to be tested and PGE2 were formulated as 10 mM stocks in a DMSO solvent, and then 8 concentration points of 4× working solution were serially diluted using a buffer (50 mM HBSS, 0.1% BSA, 500 mM NaCl). […] Unifilter-96 GF/C filter plate (Perkin Elmer) was soaked with 0.5% BSA, 50 μL per well, for at least 30 min at room temperature. After binding was complete, the reaction mixture was harvested through a GF/C plate using a Perkin Elmer Filtermate Harvester, followed by washing the filter plate and drying the filter plate for 1 hour at 50° C. After drying, the bottom of the filter plate wells was sealed using a Perkin Elmer Unifilter-96 sealing tape, and 50 μL of MicroScint™-20 cocktail (Perkin Elmer) was added to seal the top of the filter plate. The ^3H counts captured on the filter were read using a Perkin Elmer MicroBeta2 Reader.
The IC50 and Ki values of the compounds determined by the radioligand binding assay for EP4 receptor were calculated based on the inhibition rate of the different concentrations of the compounds.

[5] = Canine pharmacokinetic assay; assay type: in vivo, male Beagle dogs; settings: male, Beagle, dog, plasma, canine
Experimental: as §1
In a canine pharmacokinetic assay, male Beagle dogs (8 kg to 10 Kg) were selected and fasted overnight. Three Beagle dogs were taken and intragastrically administered with 3 mg/kg of the corresponding compound. Another 3 Beagle dogs were intravenously administered with 1 mg/kg of the corresponding compound. The following operations were the same as the mouse pharmacokinetic assay.

[6] = test system: CT-26 murine colon cancer tumor model; assay: Anti-tumor effect in CT-26 murine colon cancer tumor model in combination with radiation therapy; assay type: in vivo, mouse; settings: 150 mg/kg intragastric once daily in combination with radiotherapy (3Gry, once on day 1); day 23; tumor weight
Experimental: In this assay, the anti-tumor effects of the control compound and the compounds prepared in Examples 1 to 43, in combination with radiation therapy, were tested in a CT-26 murine colon cancer tumor model.
After one week of adaptive feeding of mice, CT-26 cells in a log phase were resuspended in PBS, 5×10^5 CT-26 cells were inoculated subcutaneously at the right flank at 100 μL per mouse, and tumor growth was observed regularly. When the tumor grew to an average volume of 60 to 80 mm^3, the mice carrying the tumor were randomly divided into 5 groups based on the tumor volume size, each group containing 10 mice of 10. These group were a group of Control compound (150 mg/kg) in combination with radiotherapy (3Gry), a group of Compound I-2 (150 mg/kg) in combination with radiotherapy, a group of Compound I-5 (150 mg/kg) in combination with radiotherapy, a group of radiotherapy (3Gry) alone, and a group of vehicle control. The mice were intragastrically administered with the corresponding compound once daily, for 23 days in total; radiation therapy was performed for one-time on the first day of the administration. Tumor volumes and mouse body weights were measured twice a week, and tumor weights were weighed at the end of the experiment. Efficacy evaluations were performed based on relative tumor inhibition (TGI), safety evaluations were performed based on changes in animal body weight and death. Tumor volume and relative tumor inhibition were calculated as follows:
Tumor volume (TV)=½×a×b^2, where a and b are the length and width of the tumor measurement, respectively.
Relative tumor inhibition rate TGI (%)=(TWc−TWt/TWc)×100%, where TWc is the mean tumor weight of the vehicle control group and TW is the mean tumor weight of the treatment group.

[7] = Rat pharmacokinetic assay; assay type: in vivo, male SD rats; settings: male, SD, plasma, rat
Experimental: as §1
In a rat pharmacokinetic assay, male SD rats (180 g to 240 g) were selected and fasted overnight. Three rats were intragastrically administered with 5 mg/kg of the corresponding compound. Another 3 rats were intravenously administered with 1 mg/kg of the corresponding compound. The following operations were the same as the mouse pharmacokinetic assay.

[8] = oral gavage administration 5 mg/kg
[9] = oral gavage administration 3 mg/kg
[10] = intravenous administration 1 mg/kg
[11] = intravenous administration 1 mg/kg, read-out: Vz

IC50 (human EP4 receptor [1]) [nM] | IC50 (human EP4 receptor [2]) [nM] | AUC(0-t) [3, 8] [ng·h/mL] | Cmax [3, 8] [ng/mL] | Tmax [3, 8] [h] | half-life [3, 8] [h] | IC50 [4] [nM] | Ki [4] [nM] | Compound | AUC(0-t) [5, 9] [ng·h/mL] | Cmax [5, 9] [ng/mL] | Tmax [5, 9] [h] | half-life [5, 9] [h] | relative tumor inhibition rate TGI (%) [6] [%] | further results
15 | 8.6 | 2440 | 570 | 0.33 | 23.2 | 13 | 7.3 | C[C@H](NC(=O)c1c(C(F)F)nn(C)c1Oc1csc(C(F)(F)F)c1)c1ccc(C(=O)O)cc1 [Compound I-42, (S)-4-(1-(3-(difluoromethyl)-1-methyl-5-((5-(trifluoromethyl)thiophen-3-yl)oxy)-1H-pyrazole-4-carboxamido)ethyl)benzoic Acid] | 7190 | 4850 | 0.25 | 8.35 | – | –
6 | 6.6 | 3060 | 1040 | 0.33 | 7.12 | 28 | 15 | C[C@H](NC(=O)c1c(C(F)F)nn(C)c1Sc1cccc(C(F)(F)F)c1)c1ccc(C(=O)O)cc1 [Compound I-35, (S)-4-(1-(3-(difluoromethyl)-1-methyl-5-((3-(trifluoromethyl)phenyl)thio)-1H-pyrazole-4-carboxamido)ethyl)benzoic Acid] | – | – | – | – | – | –

The remaining lines, values behind:

Compound | IC50 (human EP4 receptor [1]) [nM] | IC50 (human EP4 receptor [2]) [nM] | AUC(0-t) [3, 8] [ng·h/mL] | Cmax [3, 8] [ng/mL] | Tmax [3, 8] [h] | half-life [3, 8] [h] | IC50 [4] [nM] | Ki [4] [nM] | AUC(0-t) [5, 9] [ng·h/mL] | Cmax [5, 9] [ng/mL] | Tmax [5, 9] [h] | half-life [5, 9] [h] | relative tumor inhibition rate TGI (%) [6] [%] | further results
C[C@H](NC(=O)c1c(C(F)F)nn(C)c1Oc1cccc(CC(F)(F)F)c1)c1ccc(C(=O)O)cc1 [Compound I-6, (S)-4-(1-(3-(difluoromethyl)-1-methyl-5-(3-(2,2,2-trifluoroethyl)phenoxy)-1H-pyrazole-4-carboxamido)ethyl)benzoic Acid] | 8 | 8.2 | 4440 | 1280 | 0.42 | 7.22 | 11 | 5.8 | – | – | – | – | – | –
CCc1cccc(Oc2c(C(=O)N[C@@H](C)c3ccc(C(=O)O)cc3)c(C(F)F)nn2C)c1 [Compound I-1, (S)-4-(1-(3-(difluoromethyl)-5-(3-ethylphenoxy)-1-methyl-1H-pyrazole-4-carboxamido)ethyl)benzoic Acid] | 15 | 3.7 | 2140 | 1110 | 0.33 | 4.33 | 16 | 8.9 | – | – | – | – | – | –
CCc1cc(Oc2c(C(=O)N[C@@H](C)c3ccc(C(=O)O)cc3)c(C(F)F)nn2C)ccc1F [Compound I-2, (S)-4-(1-(3-(difluoromethyl)-5-(3-ethyl-4-fluorophenoxy)-1-methyl-1H-pyrazole-4-carboxamido)ethyl)benzoic Acid] | 7.4 | 1.9 | 2140 | 1840 | 0.33 | 15.7 | 5.5 | 3 | – | – | – | – | 63 | –
C[C@H](NC(=O)c1c(C(F)F)nn(C)c1Oc1cccc(C(F)(F)F)c1)c1ccc(C(=O)O)cc1 [Control Compound, reference compound] | – | – | 1770 | 792 | 0.25 | 30.9 | – | – | 6800 | 1360 | 1 | 18.6 | 54 | AUC(0-t) [7, 10]: 1420 ng·h/mL; clearance [7, 10]: 10.2 mL/min/kg; half-life [7, 10]: 10.9 h; Vd [7, 11]: 9.55 L/kg; AUC(0-t) [7, 8]: 6850 ng·h/mL; Cmax [7, 8]: 1100 ng/mL; Tmax [7, 8]: 0.5 h; half-life [7, 8]: 12.7 h; AUC(0-t) [5, 10]: 3730 ng·h/mL; clearance [5, 10]: 4 mL/min/kg; half-life [5, 10]: 9.36 h; Vd [5, 11]: 3.21 L/kg; AUC(0-t) [3, 10]: 974 ng·h/mL; clearance [3, 10]: 14.7 mL/min/kg; half-life [3, 10]: 6.64 h; Vd [3, 11]: 8.38 L/kg
